The test system of the first assay is hRXR α, β, or γ. Put plainly: Transactivation assay (RARE-Luc dual luciferase reporter in HEK-293 cells), activity relative to LG268. Format: cell-based, human. The settings on record: compound at 300 nM, 24 h; luciferase activity expressed relative to LG268. The essentials: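 HEK-293 cells co-transfected with hRXR α, β or γ expression vector, RARE-firefly luciferase and renilla luciferase; 24 h later treated with agonist (100 nM, 300 nM, 1 uM) for 24 h. Firefly signal normalized to renilla; activity expressed relative to the RXR agonist LG268.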
On the technique in general: In a reporter assay the amount or activity of a reporter protein is the signal.
On to `CC1(C)CCC(C)(C)c2sc(N(C(=O)C3CCC3)c3ccc(C(=O)O)cn3)nc21` [Compound 84, 6-[(cyclobutylcarbonyl) (4,4,7,7-tetramethyl-4,5,6,7-tetrahydro-1,3-benzothiazol-2-yl)amino]pyridine-3-carboxylic acid], for which the “Activity at 300 nM” value was “** (>0.3 and <0.4)”.

For `CC(=O)N(c1ccc(C(=O)O)cn1)c1nc2c(s1)C(C)(C)CCC2(C)C` [Compound 85, 6-[acetyl(4,4,7,7-tetramethyl-4,5,6,7-tetrahydro-1,3-benzothiazol-2-yl)amino]pyridine-3-carboxylic acid], the “Activity at 300 nM” value is “** (>0.3 and <0.4)”.

Consider `CC1(C)CC(O)C(C)(C)c2nc(N(CC3CC3)c3ccc(C(=O)O)cn3)sc21` (centres unmarked) [Compound 86, 6-[(cyclopropylmethyl) (5-hydroxy-4,4,7,7-tetramethyl-4,5,6,7-tetrahydro-1,3-benzothiazol-2-yl)amino]pyridine-3-carboxylic acid], for which the “Activity at 300 nM” value is reported as “***** (>0.6)”.

For the molecule `COC1CC(C)(C)c2sc(N(CC3CC3)c3ccc(C(=O)O)cn3)nc2C1(C)C` (centres unmarked) [Compound 87, 6-[(cyclopropylmethyl) (5-methoxy-4,4,7,7-tetramethyl-4,5,6,7-tetrahydro-1,3-benzothiazol-2-yl)amino]pyridine-3-carboxylic acid], the “Activity at 300 nM” value is given as “***** (>0.6)”.

For the molecule `CC(C)CN(c1ccc(C(=O)O)cc1)c1nc2c(s1)C(C)(C)CC(C)(O)C2(C)C` (centres unmarked) [Compound 88, 4-[(5-hydroxy-4,4,5,7,7-pentamethyl-4,5,6,7-tetrahydro-1,3-benzothiazol-2-yl) (2-methylpropyl)amino]benzoic acid], the “Activity at 300 nM” value was “** (>0.3 and <0.4)”.

With `CC(C)CN(c1ccc(C(=O)O)cc1)c1nc2c(s1)C(C)(C)C/C(=N/O)C2(C)C` [Compound 89, 4-{[(5Z)-5-(hydroxyimino)-4,4,7,7-tetramethyl-4,5,6,7-tetrahydro-1,3-benzothiazol-2-yl](2-methylpropyl)amino}benzoic acid], the “Activity at 300 nM” value is “** (>0.3 and <0.4)”.

In the case of `CC(C)CN(c1ccc(C(=O)O)cc1)c1nc2c(s1)C(C)(C)CC(NCc1ccccc1)C2(C)C` (centres unmarked) [Compound 90, 4-{[5-(benzylamino)-4,4,7,7-tetramethyl-4,5,6,7-tetrahydro-1,3-benzothiazol-2-yl](2-methylpropyl)amino}benzoic acid], the “Activity at 300 nM” value is “** (>0.3 and <0.4)”.

Take `Cc1c(N(CC(C)C)c2ccc(C(=O)O)c(O)c2)sc2c1C(C)(C)CCC2(C)C` [Compound 91, 2-hydroxy-4-[(2-methylpropyl) (3,4,4,7,7-pentamethyl-4,5,6,7-tetrahydro-1-benzothiophen-2-yl)amino]benzoic acid]: the “Activity at 300 nM” value is given as “***** (>0.6)”.

In the case of `CC1(C)CCC(C)(C)c2sc(Nc3ccc(C(=O)O)cc3O)nc21` [Compound 92, 3-hydroxy-4-[(4,4,7,7-tetramethyl-4,5,6,7-tetrahydro-1,3-benzothiazol-2-yl)amino]benzoic acid], the “Activity at 300 nM” value is reported as “* (<0.3)”.

Take `CC1(C)CCC(C)(C)c2sc(C(=O)c3ccc(C(=O)O)nc3)nc21` [Compound 93, 5-[(4,4,7,7-tetramethyl-4,5,6,7-tetrahydro-1,3-benzothiazol-2-yl)carbonyl]pyridine-2-carboxylic acid]: the “Activity at 300 nM” value is “* (<0.3)”.

In the case of `C=C(c1ccc(C(=O)O)nc1)c1nc2c(s1)C(C)(C)CCC2(C)C` [Compound 94, 5-[1-(4,4,7,7-tetramethyl-4,5,6,7-tetrahydro-1,3-benzothiazol-2-yl)ethenyl]pyridine-2-carboxylic acid], the “Activity at 300 nM” value is “** (>0.3 and <0.4)”.

Take `CC1(C)CCC(C)(C)c2sc(C(=O)c3ccc(C(=O)O)cn3)nc21` [Compound 95, 6-[(4,4,7,7-tetramethyl-4,5,6,7-tetrahydro-1,3-benzothiazol-2-yl)carbonyl]pyridine-3-carboxylic acid]: the “Activity at 300 nM” value is “** (>0.3 and <0.4)”.

For the molecule `CC1(C)CCC(C)(C)c2sc(C(C)(O)c3ccc(C(=O)O)cn3)nc21` (centres unmarked) [Compound 96, 6-[1-hydroxy-1-(4,4,7,7-tetramethyl-4,5,6,7-tetrahydro-1,3-benzothiazol-2-yl)ethyl]pyridine-3-carboxylic acid], the “Activity at 300 nM” value was “** (>0.3 and <0.4)”.

`C=C(c1ccc(C(=O)O)cc1)c1nc2c(s1)C(C)(C)CCC2(C)C` [Compound 97, 4-[1-(4,4,7,7-tetramethyl-4,5,6,7-tetrahydro-1,3-benzothiazol-2-yl)ethenyl]benzoic acid]: the “Activity at 300 nM” value is “** (>0.3 and <0.4)”.

Take `CC1(C)CCC(C)(C)c2sc(C3(c4ccc(C(=O)O)cc4)CC3)nc21` [Compound 98, 4-[1-(4,4,7,7-tetramethyl-4,5,6,7-tetrahydro-1,3-benzothiazol-2-yl)cyclopropyl]benzoic acid]: the “Activity at 300 nM” value is recorded as “**** (>0.5 to <0.6)”.

For `CC1(C)CCC(C)(C)c2sc(N(c3ccc(C(=O)O)cn3)C3CCC3)nc21` [Compound 99, 6-[cyclobutyl(4,4,7,7-tetramethyl-4,5,6,7-tetrahydro-1,3-benzothiazol-2-yl)amino]pyridine-3-carboxylic acid], the “Activity at 300 nM” value is “***** (>0.6)”.

`CC1(C)CCC(C)(C)c2sc(N(c3ccccc3)c3ccc(C(=O)O)cc3)nc21` [Compound 100, 4-[phenyl(4,4,7,7-tetramethyl-4,5,6,7-tetrahydro-1,3-benzothiazol-2-yl)amino]benzoic acid]: the “Activity at 300 nM” value is reported as “***** (>0.6)”.

Turning to `CC1(C)CCC(C)(C)c2sc(N(c3ccc(C(=O)O)cc3)c3ccccn3)nc21` [Compound 101, 4-[pyridin-2-yl(4,4,7,7-tetramethyl-4,5,6,7-tetrahydro-1,3-benzothiazol-2-yl)amino]benzoic acid], the “Activity at 300 nM” value is “*** (>0.4 and <0.5)”.

Take `Cc1c(N(c2ccccc2)c2ccc(C(=O)O)cc2)sc2c1C(C)(C)CCC2(C)C` [Compound 102, 4-[(3,4,4,7,7-pentamethyl-4,5,6,7-tetrahydro-1-benzothiophen-2-yl) (phenyl)amino]benzoic acid]: the “Activity at 300 nM” value is recorded as “***** (>0.6)”.

Regarding `Cc1c(N(c2ccc(C(=O)O)cc2)c2ccccn2)sc2c1C(C)(C)CCC2(C)C` [Compound 103, 4-[(3,4,4,7,7-pentamethyl-4,5,6,7-tetrahydro-1-benzothiophen-2-yl) (pyridin-2-yl)amino]benzoic acid], the “Activity at 300 nM” value was “***** (>0.6)”.

As for `Cc1c(N(Cc2ccccn2)c2ccc(C(=O)O)cc2)sc2c1C(C)(C)CCC2(C)C` [Compound 104, 4-[(3,4,4,7,7-pentamethyl-4,5,6,7-tetrahydro-1-benzothiophen-2-yl) (pyridin-2-ylmethyl)amino]benzoic acid], the “Activity at 300 nM” value is “* (<0.3)”.

Consider `CC1(C)CCC(C)(C)c2sc(N(CC3CC3)c3ccc(CC(=O)O)cc3)nc21` [Compound 105, {4-[(cyclopropylmethyl) (4,4,7,7-tetramethyl-4,5,6,7-tetrahydro-1,3-benzothiazol-2-yl)amino]phenyl}acetic acid], for which the “Activity at 300 nM” value is recorded as “***** (>0.6)”.

Regarding `CC1(C)CCC(C)(C)c2sc(N(CC3CC3)c3ccc(CCC(=O)O)cc3)nc21` [Compound 106, 3-{4-[(cyclopropylmethyl) (4,4,7,7-tetramethyl-4,5,6,7-tetrahydro-1,3-benzothiazol-2-yl)amino]phenyl}propanoic acid], the “Activity at 300 nM” value is listed as “***** (>0.6)”.

`CC1(C)CCC(C)(C)c2sc(N(CC3CC3)c3ccc(/C=C/C(=O)O)cc3)nc21` [Compound 107]: the “Activity at 300 nM” value was “***** (>0.6)”.

For the molecule `CC1(C)CCC(C)(C)c2sc(N(CC3CC3)c3ccc(C4CC4C(=O)O)cc3)nc21` (centres unmarked) [Compound 108, 2-{4-[(cyclopropylmethyl) (4,4,7,7-tetramethyl-4,5,6,7-tetrahydro-1,3-benzothiazol-2-yl)amino]phenyl}cyclopropanecarboxylic acid], the “Activity at 300 nM” value is reported as “***** (>0.6)”.

The next assay has as its system HL-60 promyelocytic leukemia cell line. Put plainly: HL-60 differentiation (NBT reduction). Format: cell-based. The settings on record: 72 h culture, NBT reduction at 540 nm. The procedure: Progression of promyelocytic leukemia can be abrogated by their differentiation. […] In order to estimate the differentiating ability of compound-40, HL-60 promyelocytic leukemia cell line was used as an in vitro model of the disease. HL-60 cells were cultured for 72 h as either control or under treatment as mentioned. After 72 h of culture, cells were exposed to nitro blue tetrazolium (NBT) solution containing phorbol myristate acetate (PMA) for 1 h at 37° C. Differentiated cells have increased oxidative burst potential which reduces NBT. Levels of reduced NBT were measured at 540 nm absorption.
As for `CC1=C(/C=C/C(C)=C/C=C/C(C)=C/C(=O)O)C(C)(C)CCC1` [ATRA, all transretinoic acid, reference compound], the HL-60 cells differentiation result was “induced differentiation”.
